Structures can show the parent of a compound that is named as a salt.
Target: T1, human 5-HT4(a) (Homo sapiens, UniProt Q13639)
T1 construct: host or cells: GeneBIAzer HTR4-CRE-bla CHO-K1 cells
Test: Evaluation of agonistic activity in CHO-K1 cells expressing human 5-HT4(a) (GeneBIAzer HTR4-CRE-bla CHO-K1 cells, beta-lactamase fluorescence ratio, EC50 from 8 concentrations)
Format: cell-based
Experimental: Evaluation of Agonistic Activity in CHO-K1 Cells Expressing Human 5-HT4(a)
As CHO-K1 cells stably expressing human 5-HT4(a), we used the GeneBIAzer HTR4-CRE-bla CHO-K1 cells (Invitrogen Corp.). The cells were cultured, under the condition of 37° C. and 5% CO2, in a DMEM supplemented with 10% fetal bovine serum (FBS), 25 mM HEPES (pH7.4), 600 μg/ml hygromycin B, 0.1 mM non-essential amino acids, 100 unit/ml penicillin and 100 μg/ml streptomycin. Subcultures were performed three times per one week, each being at less than 80% confluence. At the previous day before treating test compounds, the cells were collected using 0.5% trypsin/EDTA and then diluted with a DMEM supplemented with 1% FBS, 25 mM HEPES, and 0.1 mM non-essential amino acids into 3.125×10^5 cells/ml. 32 μl of the diluted cells were added into 384-well plate (10^4 cells per well) and then incubated overnight. After the overnight culture, 8 μl of the medium having 1% of DMSO was added into the cell-free control well and the non-stimulating control well, respectively. 8 μl of the respective test compound dilutions (which had been prepared by diluting by 100-times with the medium as mentioned in the above) having 1% of DMSO were added to the respective remaining wells. After being cultured in the incubator for 5 hours, the wells of the 384-plate were treated with the substrate solution (8 μl per well) prepared according to the vendor's instruction (i.e., Invitrogen's instruction), and then incubated in the dark room for additional two hours. Agonistic activities on 5-HT4 receptor were evaluated, on the basis of fluorescence values of the cleavage-products by beta-lactamase. After exciting to 410 nm of wavelength using a fluorescence detector (Genios Pro), we measured the fluorescence values at two emission wavelengths (first wavelength: 465 nm, second wavelength: 535 nm). Data were analyzed on the basis of the ratio of fluorescence intensities of each well at the respective wavelengths. Each EC50 value was calculated by non-linear regression analysis using the “GraphPad Prism” program, based on the activities according to 8-different concentrations of the test compounds.

T1 sequence (Q13639 1-387 isoform Q13639-2): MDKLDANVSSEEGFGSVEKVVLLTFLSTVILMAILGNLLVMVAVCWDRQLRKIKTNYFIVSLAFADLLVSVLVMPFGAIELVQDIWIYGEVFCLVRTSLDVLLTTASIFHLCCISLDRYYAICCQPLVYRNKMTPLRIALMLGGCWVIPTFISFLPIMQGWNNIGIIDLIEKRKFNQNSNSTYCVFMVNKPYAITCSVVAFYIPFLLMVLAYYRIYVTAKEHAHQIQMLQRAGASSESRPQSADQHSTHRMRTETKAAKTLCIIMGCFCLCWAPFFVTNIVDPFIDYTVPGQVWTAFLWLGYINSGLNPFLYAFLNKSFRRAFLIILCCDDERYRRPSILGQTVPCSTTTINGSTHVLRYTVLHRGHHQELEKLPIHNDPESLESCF

SMILES | EC50
CCCCc1cc(N2CCCCC2CCO)nc(Nc2ccc(F)cc2)n1 (centres unmarked) [Example 22, 2-{1-[6-butyl-2-(4-fluorophenylamino)pyrimidin-4-yl]piperidin-2-yl}ethanol] | 0.19 nM
CCCc1cc(N2CCCCC2CCO)nc(Nc2ccc(Cl)c([N+](=O)[O-])c2)n1 (centres unmarked) [Example 24, 2-{1-[2-(4-chloro-3-nitrophenylamino)-6-propylpyrimidin-4-yl]piperidin-2-yl}ethanol] | 0.026 nM
CCCc1cc(N2CCCCC2CCO)nc(Nc2cccc(SC)c2)n1 (centres unmarked) [Example 25, 2-(1-{2-[3-(methylthio)phenylamino]-6-propylpyrimidin-4-yl}piperidin-2-yl)ethanol] | 0.073 nM
CCCc1cc(N2CCCCC2)nc(Nc2ccc(F)c([N+](=O)[O-])c2)n1 [Example 40, N-(4-fluoro-3-nitrophenyl)-4-(piperidin-1-yl)-6-propylpyrimidin-2-amine] | 0.26 nM
CCCc1cc(N2CCCCC2)nc(Nc2ccc(Cl)c([N+](=O)[O-])c2)n1 [Example 45, N-(4-chloro-3-nitrophenyl)-4-(piperidin-1-yl)-6-propylpyrimidin-2-amine] | 0.27 nM
CCCc1cc(N2CCCCC2)nc(Nc2ccc(C)c([N+](=O)[O-])c2)n1 [Example 47, N-(4-methyl-3-nitrophenyl)-4-(piperidin-1-yl)-6-propylpyrimidin-2-amine] | 0.15 nM
CCCc1cc(N2CCCC3CCCCC32)nc(Nc2ccc3cc[nH]c3c2)n1 (centres unmarked) [Example 73, N-[4-(octahydroquinolin-1(2H)-yl)-6-propylpyrimidin-2-yl]-1H-indol-6-amine] | 0.24 nM
CCCc1cc(N2CCCCC2CCO)nc(Nc2ccc3cc[nH]c3c2)n1 (centres unmarked) [Example 74, 2-{1-[2-(1H-indol-6-ylamino)-6-propylpyrimidin-4-yl]piperidin-2-yl}ethanol] | 0.063 nM
CCCc1cc(N2CCCCC2)nc(Nc2ccc3cc[nH]c3c2)n1 [Example 76, N-[4-(piperidin-1-yl)-6-propylpyrimidin-2-yl]-1H-indol-6-amine] | 0.061 nM
CCCc1cc(N2CCOCC2)nc(Nc2ccc3cc[nH]c3c2)n1 [Example 77, N-(4-morpholino-6-propylpyrimidin-2-yl)-1H-indol-6-amine] | 0.084 nM
CCCc1cc(N2CCCCC2CC)nc(Nc2ccc3cc[nH]c3c2)n1 (centres unmarked) [Example 78, N-[4-(2-ethylpiperidin-1-yl)-6-propylpyrimidin-2-yl]-1H-indol-6-amine] | 0.12 nM
CCCc1cc(N2CCNC[C@H]2C)nc(Nc2cccc(C#N)c2)n1 [Example 82, (R)-3-[4-(2-methylpiperazin-1-yl)-6-propylpyrimidin-2-ylamino]benzonitrile dihydrochloride] | 0.096 nM
CCCc1cc(N2CCOCC2)nc(Nc2cccc([N+](=O)[O-])c2)n1 [Example 83, 4-morpholino-N-(3-nitrophenyl)-6-propylpyrimidin-2-amine hydrochloride] | 0.36 nM
CCCc1cc(N2CCOCC2)nc(Nc2ccc(F)c([N+](=O)[O-])c2)n1 [Example 84, N-(4-fluoro-3-nitrophenyl)-4-morpholino-6-propylpyrimidin-2-amine hydrochloride] | 0.27 nM
CCCc1cc(N2CCCCC2CC)nc(Nc2cccc([N+](=O)[O-])c2)n1 (centres unmarked) [Example 99, 4-(2-ethylpiperidin-1-yl)-N-(3-nitrophenyl)-6-propylpyrimidin-2-amine] | 0.37 nM
CCCc1cc(N2CCCCC2CC)nc(Nc2ccc(F)c([N+](=O)[O-])c2)n1 (centres unmarked) [Example 100, 4-(2-ethylpiperidin-1-yl)-N-(4-fluoro-3-nitrophenyl)-6-propylpyrimidin-2-amine] | 0.2 nM

SMILES | EC50
CCCc1cc(N2CCCCC2CC)nc(Nc2ccc(Cl)c([N+](=O)[O-])c2)n1 (centres unmarked) [Example 101, N-(4-chloro-3-nitrophenyl)-4-(2-ethylpiperidin-1-yl)-6-propylpyrimidin-2-amine] | 0.24 nM
CCCc1cc(N2CCCCC2CC)nc(Nc2cccc(OC)c2)n1 (centres unmarked) [Example 102, 4-(2-ethylpiperidin-1-yl)-N-(3-methoxyphenyl)-6-propylpyrimidin-2-amine] | 0.47 nM
CCCc1cc(N2CCCCC2CC)nc(Nc2cccc(SC)c2)n1 (centres unmarked) [Example 104, 4-(2-ethylpiperidin-1-yl)-N-[3-(methylthio)phenyl]-6-propylpyrimidin-2-amine] | 0.36 nM
CCCc1cc(N2CCCCC2CC)nc(Nc2ccc3nc(C(F)(F)F)[nH]c3c2)n1 (centres unmarked) [Example 109, N-[4-(2-ethylpiperidin-1-yl)-6-propylpyrimidin-2-yl]-2-(trifluoromethyl)-1H-benzo[d]imidazol-6-amine] | 0.32 nM
CCCc1cc(N2CCCCC2CC)nc(Nc2cccc(C#N)c2)n1 (centres unmarked) [Example 111, 3-[4-(2-ethylpiperidin-1-yl)-6-propylpyrimidin-2-ylamino]benzonitrile] | 0.091 nM
CCCc1cc(N2CCCCC2CC)nc(Nc2cc(OC)ccc2C)n1 (centres unmarked) [Example 112, 4-(2-ethylpiperidin-1-yl)-N-(5-methoxy-2-methylphenyl)-6-propylpyrimidin-2-amine] | 0.37 nM
CCCc1cc(N2CCCCC2CC)nc(Nc2cnc3ccccc3c2)n1 (centres unmarked) [Example 114, N-[4-(2-ethylpiperidin-1-yl)-6-propylpyrimidin-2-yl]quinolin-3-amine] | 0.31 nM
CCCc1cc(N2CCNC[C@H]2C)nc(Nc2ccc(Cl)c([N+](=O)[O-])c2)n1 [Example 117, (R)-N-(4-chloro-3-nitrophenyl)-4-(2-methylpiperazin-1-yl)-6-propylpyrimidin-2-amine] | 0.077 nM
CCCc1cc(N2CCNC[C@H]2C)nc(Nc2ccc3cc[nH]c3c2)n1 [Example 118, (R)-N-[4-(2-methylpiperazin-1-yl)-6-propylpyrimidin-2-yl]-1H-indol-6-amine] | 0.024 nM
CCCc1cc(N2CCNC[C@H]2C)nc(Nc2cccc(C(F)(F)F)c2)n1 [Example 119] | 0.156 nM
CCCc1cc(N2CCNC[C@H]2C)nc(Nc2cccc([N+](=O)[O-])c2)n1 [Example 120] | 0.073 nM
CCCc1cc(N2CCNC[C@H]2C)nc(Nc2ccc(F)c([N+](=O)[O-])c2)n1 [Example 121, (R)-N-(4-fluoro-3-nitrophenyl)-4-(2-methylpiperazin-1-yl)-6-propylpyrimidin-2-amine] | 0.093 nM
CCCc1cc(N2CCNC[C@H]2C)nc(Nc2ccc(C)c([N+](=O)[O-])c2)n1 [Example 122, (R)-N-(4-methyl-3-nitrophenyl)-4-(2-methylpiperazin-1-yl)-6-propylpyrimidin-2-amine] | 0.011 nM
CCCc1cc(N2CCNC[C@H]2C)nc(Nc2ccc(F)c(N)c2)n1 [Example 123, (R)-4-fluoro-N^1-[4-(2-methylpiperazin-1-yl)-6-propylpyrimidin-2-yl]benzene-1,3-diamine] | 0.121 nM
CCCc1cc(N2CCNC[C@H]2C)nc(Nc2ccc(N)c(C(F)(F)F)c2)n1 [Example 124, (R)-N^1-[4-(2-methylpiperazin-1-yl)-6-propylpyrimidin-2-yl]-3-(trifluoromethyl)benzene-1,4-diamine] | 0.028 nM
CCCc1cc(N2CCNC[C@H]2C)nc(Nc2ccc(F)c(C#N)c2)n1 [Example 125, (R)-2-fluoro-5-[4-(2-methylpiperazin-1-yl)-6-propylpyrimidin-2-ylamino]benzonitrile] | 0.051 nM

Reference: patent publication US9850227B2 (YUHAN CORPORATION, priority 2011, dated 2017)
